# Measurements: patent EP0738149B1 (priority 1994, dated 1995)
# Where a name gives a salt, the structure may show the parent alone. Read-outs that look alike come from different tables or passages of the source.
# Tests used:
# [1] = system: rats; assay: Maximal electroshock (MES) model in rats, p.o.;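 on all read-outs here: rat MES model gauging antiepileptic efficacy versus generalized and partial seizures after oral dosing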; type: in vivo; details: for ED50: Rattus norvegicus, po
# [2] = in vivo; details: rat, in vivo, po
# Protocol: (§1) Neurotoxicity of the claimed agents was also assessed in mice (i.p. administration) by the rotorod ataxia test and/or in rats (p.o. administration) by positional sense test and gait stance test. […] The term quantitating the neurotoxicity is the medial neurological toxic dose (TD50), was determined in the above tests.
# [3] = system: rats; assay: Neurotoxicity in rats (positional sense test and gait stance test), p.o.; details: rats, p.o.
# Protocol: as §1
# [4] = Neurotoxicity in mice (rotorod ataxia test), i.p.; details: mouse, in vivo, ip
# Protocol: as §1
# [5] = system: mice; assay: Neurotoxicity in mice (rotorod ataxia test), i.p.
# Protocol: as §1
# [6] = system: mice; assay: Maximal electroshock (MES) model in mice, i.p.;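 on all read-outs here: Electroshock-induced convulsion model serving to demonstrate antiepileptic efficacy against generalized and partial seizures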; type: in vivo; details: for ED50: Mus musculus, ip; for ED50 / MICE MES ED50: Table 15; for MICE MES ED50: i.p.; for activity in the MES model in mice: statement in words
# [7] = system: mice; details: for MICE scMet ED50: i.p.; for ED50: Mus musculus, ip
# [8] = system: rats; details: Rattus norvegicus, po, read-out: RATS scMet ED50
# [9] = system: rats; assay: Closed head injury in rats: motor function (Neurological Severity Status), Experiments 4A-4E
# [10] = system: Male mongolian gerbils; assay: Global brain ischemia in gerbils (CA1 pyramidal neurons); type: in vivo; details: 3 injections, fraction of hippocampi protected from ischemia, 14 days post-ischemia
# Protocol: Each artery was clamped for 5 minutes with aneurysm clips to produce global brain ischemia. The anesthesia was discontinued upon clamping. After 5 minutes the clamps were removed and the wound closed with skin clips.
# For treatment, the test compound or vehicle were injected intra-peritoneally (ip) in a volume of 50 microliters of solvent per 10g body weight. The first injection was given two minutes after clamp removal, and thereafter daily for the next 2 post-operative days (total of 3 injections).
# Seven groups each of 4-8 animals were compared: • I. Control; (sham- or unoperated and saline treated), • II. Vehicle treated, unoperated (when solvent is other than saline), • III. Ischemia - untreated or saline treated), • IV. Ischemia - vehicle treated (when solvent is other than saline), • V. Ischemia - Test compound treated, one sub-group per concentration tested, • VI. Ischemia and pentobarbital (40 mg/kg) as positive control).
# Analysis of neuronal damage was performed 14 days post-ischemia by counting pyramidal neurons throughout the CA1 layer of the anterior hippocampus in […] thick (paraffin) coronal brain sections stained with hematoxylin and erosin.
# Percent Protection values represent the fraction of hippocampi protected from ischemia in a group of animals treated with the stated dose of compound.
# [11] = system: male ICR albino mice; assay: Hypobaric hypoxia survival time in mice; type: in vivo
# Protocol: Dessicator B was disconnected and allowed to equilibrate with room air whilst dessicator A was evacuated to a pressure of 100mmHg. […] The survival time from the moment of induction of hypoxia to the time of cessation of respiration was recorded for each mouse for a maximum of 15 minutes after which time room air was reintroduced to dessicator B. Survivors were monitored for signs of lethargy or vitality.
# Effect of drug treatment was assessed as the percent of the survival time of the drug treated group with respect to the saline injected or vehicle injected control group. Control groups were run twice, before and after each experimental group and consisted of 12-16 mice in groups of 4 mice. Each experimental group always consisted of 4 mice to ensure a constant residual volume of oxygen in all tests. The effect of each dose of test drug was determined in duplicate i.e. two groups of 4 mice.
# All drugs were administered intra-peritoneally at the dose indicated one hour prior to exposure to hypoxia.
# [12] = system: mechanically dissociated neonatal rat cerebellum; assay: Reversal of NMDA induced cell death in cultures of neonatal rat cerebellum; type: cell-based; details: separate experiment, Maximum Protection possible 90%
# Protocol: The cerebellum was aseptically dissociated from 6 or 7-day old rat pups and placed in a 15ml sterile plastic conical tube containing 3ml of Dulbecco's modified Eagle's medium (DMEM) with a high glucose concentration ([…]) and 2mM (v/v) L-glutamine and an antibiotic antimitotic mixture. The cerebella were then dissociated after 20-25 passages through a sterile 13 gauge, 10cm long stainless steel needle attached to a 5ml syringe with an inserted 45 micrometer pore nylon sieve. The dissociated cells were centrifuged at 200g for 5 minutes. The supernatant was discarded and the cells resuspended in medium enriched with 15% (v/v) heat inactivated fetal calf serum. Cell viability was determined by the tryptan blue exclusion test.
# Cells were plated at a density of 200/mm^2 on poly-L-lysine coated surfaces. Poly-L-lysine coated glass coverslips were prepared at least one hour in advance of plating by immersing sterile coverslips in sterile distilled water solution containing 15 microgram/ml poly-L-lysine, and washing in sterile water just prior to use. The plated cells were covered with enriched medium and incubated at 37°C in an atmosphere of 5% CO2 in air and 97% humidity. After three days in culture, the media was replaced with media containing the desired test compound. Each test compound was tested in duplicate. Toxic-dose response was determined for each compound.
# Four groups were run in each set of experiments; • I. Control, consisting of enriched media alone, • II. N-methyl-D-aspartate (NMDA, 1mM for 3 hours) as the cytotoxic challenge, • III. Test compound plus NMDA, and • IV. Positive control, spermine(0.01 micromoles) plus NMDA.
# Nerve cell survival was evaluated by phase contrast microscopy and tryptan blue staining after 24 hours.
# Surviving cells in culture are measured relative to control (100%), as described above. Percent protection is the Cell Survival for the test compound minus the NMDA effect. Thus, maximal protection is 100% minus 30% NMDA effect i.e. […]. The Effective Protection was calculated as the percent of the Percent Protection (X) divided by the maximal protection value (e.g. X x 100/70).
# [13] = read-out: MICE scMet ED50, mice, i.p., Table 16
# [14] = rats, p.o., Table 15, read-out: RATS MES 50
# [15] = read-out: RATS MES 50, rats, p.o., Table 15
# [16] = Exp 4A, 0.1mg/kg i.p. at 0,4,8 and 12 hours post-trauma
# [17] = Exp 4B, 0.1mg/kg once a day for 14 days
structure (smiles),measurement,setting,value
"NC1CCc2ccccc21 (racemic) [A, 1-aminoindan]",ED50,[1]; read-out: RATS MES 50,36 mg/kg
same,TD50,[2],> 168 mg/kg
same,RATS TD50,[3]; Table 16,>168 mg/kg
same,TD50,[4],> 100 mg/kg
same,MICE TD50,"[5]; mice, i.p., Table 16",>100 mg/kg
"NC(=O)CNC1CCc2ccccc21 (racemic) [Example 3, (rac)-N-(2-Acetamido)-1-aminoindan.HCl]",RATS MES 50,"[1]; rats, p.o., Table 15",<50 mg/kg
same,TD50,[2],> 50 mg/kg
same,ED50,[6],83 mg/kg
same,MICE MES ED50,[6],<100 mg/kg
same,MICE scMet ED50,[7]; Table 16,36 mg/kg
same,MICE scMet ED50,"[7]; Table 16, listed as 3*",>130 mg/kg
same,TD50,"[4]; MICE TD50, mice, Table 15",127 mg/kg
same,TD50,"[4]; MICE TD50, mice, Table 16",127 mg/kg
same,MICE TD50,"[5]; mice, i.p., Table 15",>100 mg/kg
same,MICE TD50,"[5]; mice, i.p., Table 16",126 mg/kg
"NC(=O)CNC1CCc2ccc(F)cc21 (racemic) [Example 5, (rac)-6-Fluoro-N-(2-acetamido)-1-aminoindan.HCl]",ED50,[6],< 100 mg/kg
same,MICE MES ED50,[6],58 mg/kg
same,activity in the MES model in mice,[6],showed activity
same,ED50,[7]; [13],> 200 mg/kg
same,TD50,"[4]; MICE TD50, mice, Table 16",138 mg/kg
same,MICE TD50,"[5]; mice, i.p., Table 15",>300 mg/kg
"O=CNC1CCc2ccccc21 (racemic) [Example 8, (rac)-N-Formyl-1-aminoindan]",ED50,[1]; [14],24 mg/kg
same,TD50,[2],> 500 mg/kg
same,RATS TD50,[3]; Table 16,>500 mg/kg
same,ED50,[8],> 250 mg/kg
"COc1ccc2c(c1)C(NC(C)=O)CC2 (racemic) [Example 26, (rac) 6-methoxy-N-acetyl-1-aminoindan]",ED50,[1]; [14],40 mg/kg
same,TD50,[2],> 500 mg/kg
same,RATS TD50,[3]; Table 16,>500 mg/kg
same,ED50,[8],> 250 mg/kg
"O=C(NC1CCc2ccccc21)c1ccccc1 (racemic) [Example 46, (rac)-N-Benzoyl-1-aminoindan]",ED50,[6],82 mg/kg
same,ED50,[7]; [13],> 500 mg/kg
same,TD50,[4]; MICE TD50,500 mg/kg
same,MICE TD50,"[5]; mouse, in vivo, ip",>500 mg/kg
"Cl.NC(=O)CN[C@@H]1CCc2ccccc21 [D, (R)-Indanylglycinamide-HCl salt]",RATS MES 50,"[1]; rats, p.o., Table 15",105 mg/kg
same,RATS TD50,[3]; Table 15,>180 mg/kg
same,RATS TD50,[3]; Table 16,>180 mg/kg
same,MICE MES ED50,[6],83 mg/kg
same,MICE scMet ED50,[7]; Table 16,>130 mg/kg
same,MICE TD50,"[5]; mice, i.p., Table 15",127 mg/kg
same,MICE TD50,"[5]; mice, i.p., Table 16",127 mg/kg
"C#CCN[C@@H]1CCc2ccccc21.Cl [E, (R)-N-propargyl-1-aminoindan HCl salt]",ED50,[1]; [15],< 50 mg/kg
same,ED50,[6],79 mg/kg
same,ED50,[8],> 154 mg/kg
"NC(=O)CN[C@@H]1CCc2ccccc21 [Example 1, (R)-N-(2-Aeetamido)-1-aminoindan.HCl]",RATS MES 50,"[1]; rats, p.o., Table 15",50 mg/kg
same,TD50,[2],> 50 mg/kg
same,RATS TD50,[3]; Table 16,>50 mg/kg
same,ED50,[6],77 mg/kg
same,ED50,[7]; read-out: MICE scMet ED50,> 200 mg/kg
same,TD50,"[4]; MICE TD50, mice, Table 15",198 mg/kg
same,TD50,"[4]; MICE TD50, mice, Table 16",198 mg/kg
"C#CCN[C@H]1CCc2ccccc21.CS(=O)(=O)O [H, (S)-N-propargyl-1-aminoindan mesylate salt]",ED50,[1]; [15],≤ 50 mg/kg
same,ED50,[6],≤ 50 mg/kg
same,ED50,[7]; read-out: MICE scMet ED50,> 200 mg/kg
"NC1CCc2ccc(F)cc21 (centres unmarked) [I, 6-fluoro-1-aminoindan]",ED50,[1]; [14],< 50 mg/kg
same,TD50,[2],> 50 mg/kg
same,RATS TD50,[3]; Table 16,>50 mg/kg
same,ED50,[6],66 mg/kg
same,ED50,[8],> 100 mg/kg
same,TD50,[4]; MICE TD50,58 mg/kg
same,MICE TD50,"[5]; mouse, in vivo, ip",58 mg/kg
"C#CCNC1CCc2ccc(F)cc21 (centres unmarked) [L, 6-fluoro-N-propargyl-1-aminoindan]",ED50,[1]; [14],50 mg/kg
same,TD50,[2],> 50 mg/kg
same,RATS TD50,[3]; Table 16,>50 mg/kg
same,ED50,[6],74 mg/kg
same,activity in the MES model in mice,[6],showed activity
same,ED50,[8],> 300 mg/kg
same,TD50,[4]; MICE TD50,188 mg/kg
same,MICE TD50,"[5]; mouse, in vivo, ip",188 mg/kg
"N[C@H]1CCc2ccccc21 [SAI, (S)-1-aminoindan]",ED50,[1]; read-out: RATS MES 50,17 mg/kg
same,NSS 1hr,[9]; [16],16.4
same,NSS 24hr,[9]; [16],10.8
same,ΔNSS,"[9]; Exp 4A, 0.1mg/kg i.p. at 0,4,8 and 12 hours post-trauma, change 1 hour to 24 hours",5.6±0.5
same,NSS at 1hr,[9]; [17],16.6±0.3
same,ΔNSS at 24hr,[9]; [17],5.5±0.4
same,ΔNSS at 48hr,[9]; [17],6.8±2.7
same,ΔNSS at 7d,[9]; [17],8.3±1.0
same,ΔNSS at 14d,[9]; [17],9.5±1.0
same,TD50,[2],> 500 mg/kg
same,RATS TD50,[3]; Table 16,>500 mg/kg
same,PERCENT PROTECTION,[10]; 0.1 mg/kg ip,0%
same,PERCENT PROTECTION,[10]; 1.0 mg/kg ip,50.0%
same,PERCENT PROTECTION,[10]; 10.0 mg/kg ip,75.0%
same,PROTECTION % OF RESPECTIVE CONTROL,[11]; 50 mg/kg ip one hour prior to hypoxia,174±39 % OF RESPECTIVE CONTROL
same,PROTECTION % OF RESPECTIVE CONTROL,[11]; 100 mg/kg ip one hour prior to hypoxia,404±244 % OF RESPECTIVE CONTROL
same,PROTECTION % OF RESPECTIVE CONTROL,[11]; dose cell empty (line below 50 mg/kg ip),264±66 % OF RESPECTIVE CONTROL
same,TD50,[4],25 mg/kg
same,MICE TD50,"[5]; mice, i.p., Table 16",25 mg/kg
same,EFFECTIVE PROTECTION,[12]; 0.01 µM,43%
same,EFFECTIVE PROTECTION,[12]; 0.05 µM,57%
